Article PMC9610702, “Synthesis, Characterization, and Biological Evaluation of Tetrahydropyrimidines: Dual-Activity and Mechanism of Action” (Pharmaceutics, 2022)
In brackets after ≈: the same amount, converted by molar mass. Read-outs that look alike come from different tables or passages of the source.

Experiments:
Escherichia coli = assay: antibacterial MIC, broth tube dilution; format: cell-based
From the text: (§1) In this paper, the synthesis, characterization, and biological evaluation of the novel tetrahydropyrimidines—THPMs are described. THPMs are well-known for wide pharmacological activities such as antimicrobial, anticancer, antiviral, etc. This research includes obtained results of in vitro antimicrobial, anticancer, and α-glucosidase inhibitory activities of the eleven novel THPMs. An antibiotic assessment was done against five bacteria (two Gram-positive and three Gram-negative) and five fungi by determining the minimal inhibitory concentration (MIC), using the broth tube dilution method. […] The cytotoxic activity was performed on the tumor cell lines (HeLa, K562, and MDA-MB-231) and normal cells (MRC-5). The best antitumor activity was shown by compounds 4b and 4k against HeLa cell lines.
(§2) All materials and methods used for biological examination (antibacterial, antifungal, anticancer, and α-glucosidase inhibitory activities) and crystal structure determination are presented in the Supplementary Materials, File S1.

Proteus mirabilis = assay: antibacterial MIC, broth tube dilution; format: cell-based; conditions: ND = not detected, read-out: MIC
From the text: as §1, §2

Klebsiella oxytoca = assay: antibacterial MIC, broth tube dilution; format: cell-based
From the text: as §1, §2

Bacillus subtilis = assay: antibacterial MIC, broth tube dilution; format: cell-based
From the text: as §1, §2

Staphylococcus aureus = assay: antibacterial MIC, broth tube dilution; format: cell-based
From the text: as §1, §2

α-glucosidase = α-glucosidase inhibitory activity; format: biochemical; conditions: average ± SD of two experiments
From the text: as §2

[1] = test system: normal human lung fibroblasts MRC-5; assay: cytotoxic activity on normal cells; format: cell-based; conditions: MRC5, MRC-5 normal fibroblasts, three independent experiments in triplicate, read-out: IC50 Average ± SD
From the text: as §2
The cytotoxic activity of eleven novel compounds was examined against HeLa, K562, MDA-MB-231, and MRC-5.
The cytotoxic activity was examined against HeLa, K562, MDA-MB-231 cells, and normal human lung fibroblasts MRC-5. […] In addition, the effects of the 4k and 4b on the cell cycle were examined.

HeLa cells [2] = assay: cytotoxic activity; format: cell-based; conditions: for IC50: HeLa, three independent experiments in triplicate, read-out: IC50 Average ± SD
From the text: (§3) All materials and methods used for biological examination (antibacterial, antifungal, anticancer, and α-glucosidase inhibitory activities) and crystal structure determination are presented in the Supplementary Materials, File S1. The cytotoxic activity of eleven novel compounds was examined against HeLa, K562, MDA-MB-231, and MRC-5. The tested compounds exerted concentration-dependent cytotoxic effects on cell lines. […] Compared to compound 4j, 4k has a methyl group in para position of benzoyl fragment; so, probably this structural difference is responsible for better activity and selectivity of compound 4k on HeLa (43.63 ± 1.49 µM) and K562 (39.11 ± 2.90 µM).

MDA-MB-231 cells = assay: cytotoxic activity; format: cell-based; conditions: three independent experiments in triplicate, read-out: IC50 Average ± SD
From the text: as §3

K562 cells = assay: cytotoxic activity; format: cell-based; conditions: for IC50: K562, three independent experiments in triplicate, read-out: IC50 Average ± SD
From the text: as §3

Mucor mucedo = assay: antifungal MIC, broth tube dilution; format: cell-based
From the text: as §1, §2

[3] = test system: Trichophyton mentagrophytes; assay: antifungal MIC, broth tube dilution; format: cell-based
From the text: as §1, §2

Aspergillus niger = assay: antifungal MIC, broth tube dilution; format: cell-based
From the text: as §1, §2

Aspergillus flavus = assay: antifungal MIC, broth tube dilution; format: cell-based
From the text: as §1, §2

Penicillium italicum = assay: antifungal MIC, broth tube dilution; format: cell-based
From the text: as §1, §2

HeLa cells [4] = assay: cell-cycle phase distribution; format: cell-based; conditions: 24 h, IC50 and 2IC50 concentrations, vs untreated control
From the text: as §2
The observed changes in the amounts of treated cells within subG1 and G1 phases of the cell cycle were accompanied with decreased percentages of cells within the S and G2/M phases.
The data shown represent the average ± standard deviation of two independent experiments.

HeLa cells [5] = assay: morphological evaluation of cell death mode, acridine orange/ethidium bromide staining; format: cell-based; conditions: 24 h, 2IC50 concentration
Description: as §2
The photomicrographs of control HeLa cells and HeLa cells incubated for 24 h with 2IC50 concentrations of the compounds 4b and 4k and stained with a mixture of acridine orange/ethidium bromide are presented in Figure 5. […] Orange-red-stained shrunken cells with condensed chromatin in later stages of apoptosis were detected as well. […] The proapoptotic effect of compound 4b was to some extent stronger when comparing with effect of compound 4k.
Figure 5 Photomicrographs of acridine orange/ethidium bromide-stained control HeLa cells and HeLa cells incubated with 2IC50 concentrations of compounds 4b and 4k during 24 h (magnification 20×). Representative photomicrographs are shown.

Structure (SMILES)	MIC (Escherichia coli)	MIC (Proteus mirabilis)	MIC (Klebsiella oxytoca)	MIC (Bacillus subtilis)	MIC (Staphylococcus aureus)	IC50 (α-glucosidase)	IC50 [1]	IC50 (HeLa cells [2]; Homo sapiens)	IC50 (MDA-MB-231 cells; Homo sapiens)	IC50 (K562 cells; Homo sapiens)	MIC (Mucor mucedo)	MIC [3]	MIC (Aspergillus niger)	MIC (Aspergillus flavus)	MIC (Penicillium italicum)	also measured
COC(=O)C1=C(C)N(C)C(=S)NC1c1ccc(OC(C)=O)c(OC)c1 (stereo not drawn) [4g]	1620 µg/mL (≈ 4.45 mM)	810 µg/mL (≈ 2.22 mM)	1620 µg/mL (≈ 4.45 mM)	3250 µg/mL (≈ 8.92 mM)	3250 µg/mL (≈ 8.92 mM)	192 ± 5.95 µM	193 ± 9.59 µM	197 ± 3.55 µM	> 200 µM	153 ± 2.58 µM	1620 µg/mL (≈ 4.45 mM)	400 µg/mL (≈ 1.1 mM)	1620 µg/mL (≈ 4.45 mM)	1620 µg/mL (≈ 4.45 mM)	1620 µg/mL (≈ 4.45 mM)	–
CCOc1cccc(C2NC(=S)N(C)C(C)=C2C(=O)OC)c1OC(C)=O (stereo not drawn) [4h]	3250 µg/mL (≈ 8.59 mM)	3250 µg/mL (≈ 8.59 mM)	3250 µg/mL (≈ 8.59 mM)	3250 µg/mL (≈ 8.59 mM)	3250 µg/mL (≈ 8.59 mM)	933 ± 25.2 µM	77.8 ± 2.57 µM	121 ± 9.96 µM	114 ± 12.9 µM	79.9 ± 6.73 µM	1620 µg/mL (≈ 4.28 mM)	810 µg/mL (≈ 2.14 mM)	1620 µg/mL (≈ 4.28 mM)	1620 µg/mL (≈ 4.28 mM)	1620 µg/mL (≈ 4.28 mM)	–
COC(=O)C1=C(C)N(C)C(=S)NC1c1ccc(OC(=O)c2ccccc2)c(OC)c1 (stereo not drawn) [4j, methyl 4-(4′-benzoyloxy-3′-methoxyphenyl)-1,2,3,4-tetrahydro-1,6-dimethyl-2-thioxopyrimidine-5-carboxylate]	3250 µg/mL (≈ 7.62 mM)	1620 µg/mL (≈ 3.8 mM)	3250 µg/mL (≈ 7.62 mM)	3250 µg/mL (≈ 7.62 mM)	3250 µg/mL (≈ 7.62 mM)	–	104 ± 8.61 µM	78.1 ± 5.78 µM	123 ± 2.19 µM	68 ± 6.53 µM	1620 µg/mL (≈ 3.8 mM)	400 µg/mL (≈ 0.938 mM)	1620 µg/mL (≈ 3.8 mM)	1620 µg/mL (≈ 3.8 mM)	1620 µg/mL (≈ 3.8 mM)	–
COC(=O)C1=C(C)N(C)C(=S)NC1c1ccc(OC(=O)c2ccc(C)cc2)c(OC)c1 (stereo not drawn) [4k]	3250 µg/mL (≈ 7.38 mM)	3250 µg/mL (≈ 7.38 mM)	3250 µg/mL (≈ 7.38 mM)	3250 µg/mL (≈ 7.38 mM)	3250 µg/mL (≈ 7.38 mM)	1080 ± 54.5 µM	87.2 ± 7.31 µM	43.6 µM	74.1 ± 1.25 µM	39.1 ± 2.9 µM	1620 µg/mL (≈ 3.68 mM)	200 µg/mL (≈ 0.454 mM)	1620 µg/mL (≈ 3.68 mM)	810 µg/mL (≈ 1.84 mM)	1620 µg/mL (≈ 3.68 mM)	percentage of HeLa cells in the G1 phase (HeLa cells [4]): pronounced increase; percentage of dead cells within subG1 phase (HeLa cells [4]): increase; percentages of cells within the S and G2/M phases (HeLa cells [4]): decreased; cell death mode (apoptosis) (HeLa cells [5]): activate apoptosis; selectivity coefficient (HeLa cells [2]; HeLa compared with MRC-5 cells): 2; selectivity coefficient (K562 cells; K562 compared with MRC-5 cells): 2.23
OC(Cn1cncn1)(Cn1cncn1)c1ccc(F)cc1F [Fluconazole, reference compound]	–	–	–	–	–	–	–	–	–	–	1000 µg/mL (≈ 3.27 mM)	250 µg/mL (≈ 0.816 mM)	500 µg/mL (≈ 1.63 mM)	1000 µg/mL (≈ 3.27 mM)	1000 µg/mL (≈ 3.27 mM)	–
[H]/N=C(/N)N[C@H]1[C@H](O)[C@@H](O)[C@H](O[C@@H]2O[C@@H](C)[C@](O)(C=O)[C@H]2O[C@@H]2O[C@@H](CO)[C@H](O)[C@@H](O)[C@@H]2NC)[C@@H](N/C(N)=N\[H])[C@@H]1O [Streptomycin, reference compound]	62 µg/mL (≈ 0.107 mM)	62 µg/mL (≈ 0.107 mM)	8 µg/mL (≈ 0.0138 mM)	16 µg/mL (≈ 0.0275 mM)	31 µg/mL (≈ 0.0533 mM)	–	–	–	–	–	–	–	–	–	–	–
N.N.[Cl][Pt][Cl] [cisPt, reference compound]	–	–	–	–	–	–	–	–	–	–	–	–	–	–	–	IC50 (HeLa cells [2]): 4.91 ± 0.74 µM; IC50 (MDA-MB-231 cells): 14.7 ± 0.36 µM; IC50 (K562 cells): 6.89 ± 0.21 µM
